Measured values taken from patent US10124035B2, “DISC-1 pathway activators in the control of neurogenesis” (Massachusetts Institute of Technology, priority 2008, dated 2018).
“Also recorded” adds a separate entry of the source.

How the values were obtained:
[1] = test system: TCF reporter in 293T cells; test: TCF reporter activity in DISC1 knockdown 293T cells with Wnt3a conditional medium; type: cell-based; details: 16 hours
Protocol: Primary neural stem cells from E14 brains were infected with control or DISC1 shRNA lentiviruses. 48 hours after to transduction, cells were treated with vehicle or SB-216763 (5 μM) for 16 hours and then pulsed with 10 μM BrdU for 2 hours. Shown is percentage of GFP and BrdU double positive cells to total GFP positive cells (n=3, p<0.05). b. […] 1.5 μg of vector or WT-DISC1 was cotransfected with 0.5 μg control or DISC1 shRNA-2, 0.1 μg TCF reporter, and 10 ng pRL-TK vector into 293T cells. 48 hours after transfection, Wnt3a conditional medium with vehicle, SB-216763, or AR-A104418 was added for another 16 hours.
• Mice. Swiss Webster pregnant female mice were purchased from Taconic (Hudson, N.Y.). • Cell Culture. AHPs were kindly provided by Dr. Gage (Lie, D. C. et al. Wnt signaling to regulates adult hippocampal neurogenesis. Nature 437, 1370-5 (2005)) and cultured under conditions described previously (Palmer, T. D., Takahashi, J. & Gage, F. H. The adult rat hippocampus contains primordial neural stem cells. Mol Cell Neurosci 8, 389-404 (1997)). Primary neural progenitors were isolated from E14 mouse embryos and cultured as described previously (Sanada, K. & Tsai, L. H. G protein betagamma subunits and AGS3 control spindle orientation and asymmetric cell fate of cerebral cortical progenitors. Cell 122, 119-31 (2005)). N2a and 293T cells were cultured in DMEM medium containing 10% FBS, L-glutamine, and penicillin/streptomycin. Wnt3a expressing L cells and untransfected L cells were obtained from ATCC (Manassas, Va.). Wnt3a conditional medium was produced according to the ATCC protocol. To induce AHP differentiation, FGF2 was removed from the culture medium and 1 μM retinoic acid/1% FBS was added to the medium for 4 days. • Reagents. Recombinant Wnt3a protein was obtained from Chemicon (Rosemont, Ill.). FGF2 was obtained from PeproTech (Rocky Hill, N.J.). Recombinant GST-GSK3β was obtained from Active Motif (Carlsbad, Calif.). Recombinant GST-β-catenin and GST-axin were obtained from Millipore (Billerica, Mass.). […]

[2] = previously reported (Selenica et al. 2007); cited from earlier work

Cn1cc(C2=C(c3ccc(Cl)cc3Cl)C(=O)NC2=O)c2ccccc21 [SB-216763]
TCF reporter activity in DISC1 knockdown cells [1]: rescued TCF activity in DISC1 knockdown cells to control levels; also recorded: rescues the TCF activation defect caused by DISC1 knockdown | crossing of the blood-brain barrier [2]: cross the blood-brain barrier
